US20250134867A1, “METHOD FOR MODULATING LIPID METABOLISM, AMELIORATING NON-ALCOHOLIC FATTY LIVER DISEASE AND METABOLIC SYNDROME BY USING 6-METHOXYBENZOXAZOLINONE” (Taichung District Agricultural Research and Extension …, priority 2023, published 2025)

Key:
Assay type in all cases: cell-based, human
HuS-E/2 cells = assay: MTT cell viability / cytotoxicity assay; conditions: 24 h
Procedure: To determine the cytotoxicity of CX, HuS-E/2 cells were incubated with CX at the concentrations indicated for 24 hours. The CX stock solution was 200 mM in dimethyl sulfoxide (DMSO; Cat. 15578544, J. T. Baker, USA), and stored at −20° C.
The procedure regarding cell culture of immortalized primary human hepatocytes HuS-E/2 cells is as follows. HuS-E/2 cell line, kindly provided by Dr. Shimotohno (Kyoto University, Japan), were maintained in primary hepatocyte medium (PH medium), containing 20 mM HEPES, 10% fetal bovine serum, 15 μg/mL L-proline, 0.25 μg/mL insulin, 50 nM dexamethasone, 44 mM NaHCO3, 10 mM nicotinamide, 5 ng/ml EGF, 0.1 mM Asc-2P, 100 IU/mL penicillin, 100 μg/mL streptomycin, 10 μg/mL gentamicin, and 1 μg/mL plasmocin in high-glucose Dulbeco's modified Eagle medium (DMEM). Cells were incubated at 37° C. in an incubator supplied with 5% CO2.
3-(4,5-dimethylthiazol-2-yl)-2,5-diphenyltetrazolium bromide (MTT) (Cat. M5655) (Sigma-Aldrich, USA) stock solution was 5 mg/mL in 1×phosphate-buffered saline (PBS), and stored at −20° C.
The procedure regarding cell viability is as follows. HuS-E/2 cells were seeded at 4.5×10^4 cells/well in a 96-well plate and were incubated with 0-1600 μM CX for 24 h. MTT was added to each well to a final concentration of […] and was incubated at 37° C. for an hour before removal. MTT-formazan crystals formed by metabolically viable cells were dissolved in 200 μL of DMSO for absorbance detection at 550 nm using a SPARK® Multimode microplate reader from TECAN, Switzerland. The 50% cytotoxic concentration (CC50) was calculated using the normalized response (variable slope) model given in GraphPad Prism 7.03 (USA).

OA-induced HuS-E/2 cells = assay: Oil Red O staining of lipid accumulation in oleic acid (OA)-induced cells; conditions: 0.1 mM OA, 18 h
Procedure: To evaluate the effect of CX on lipid accumulation, HuS-E/2 cells were incubated with or without 0.1 mM OA (Cat. O1383) in the presence or absence of CX for 18 hours. The OA stock solution was 3.15 M in DMSO, and stored at −20° C.
The procedure regarding oil red O staining is as follows. Oil Red O stain (Cat. O0625) were from Sigma-Aldrich, USA. The Oil Red O stain stock solution was 3 mg/mL in isopropanol, and stored at room temperature. For microscopic observation, cells were fixed in 4% paraformaldehyde in phosphate-buffered saline (PBS) for 30 min at room temperature, stained with Oil Red O stain working solution (60% Oil Red O stock solution and 40% distilled water) for 1 h at room temperature, and then rinsed with water. Micrographs were captured under a microscope. For quantitative analysis of cellular lipids, cells were washed three times with ice-cold PBS, fixed with 10% formalin for 1 h, washed, stained with Oil Red O solution for 1 h at room temperature, and washed with water to remove excess dye. Cell-bound Oil Red O stain was dissolved in isopropanol at room temperature for 5 min with shaking. The absorbance at 510 nm was measured in a spectrophotometer. The relative lipid content is calculated by setting the readouts of those receiving vehicles to 0% and those receiving free fatty acids alone to 100%.

[1] = test system: adenosine 5′-monophosphate-activated protein kinase (AMPK); assay: Western blot analysis, AMPK phosphorylation in OA-induced HuS-E/2 cells; conditions: CX at 100-400 μM, 0.1 mM OA-induced HuS-E/2 cells
Description: (§1) The procedure regarding Western blot analysis is as follows. For western blot analysis, an equal amount of protein from each sample was resolved by sodium dodecyl sulfate polyacrylamide gel electrophoresis (SDS-PAGE) and then transferred to polyvinylidene fluoride (PVDF) membranes. Primary antibodies against AMPK (Cat. GTX103487), adipose triglyceride lipase (ATGL) (Cat. GTX109941), carnitine palmitoyl-transferase 1 (CPT1) (Cat. GTX114337), and β-actin (Cat. GTX109639) were from GeneTex (Taiwan), and those against pAMPK (Cat. AP0432), phospho acetyl-CoA carboxylase (pACC) (Cat. AP0298), ACC (Cat. A15606), and fatty acid synthase (FAS) (Cat. A21182) was from ABclonal (China). Horseradish peroxidase (HRP)-conjugated secondary antibodies were from Jackson ImmunoResearch Laboratories, Inc., USA. WesternBright® ECL kits (Advansta Inc., USA) were used for protein visualization. Levels of protein expression were quantified by densitometric analyses.

[2] = test system: acetyl-CoA carboxylase (ACC1); assay: Western blot analysis, ACC1 phosphorylation in OA-induced HuS-E/2 cells; conditions: CX at 50-400 μM, 0.1 mM OA-induced HuS-E/2 cells
Description: as §1

[3] = test system: fatty acid synthase (FAS); assay: Western blot analysis, FAS expression in OA-induced HuS-E/2 cells; conditions: CX at 100-400 μM, 0.1 mM OA-induced HuS-E/2 cells
Description: as §1

[4] = test system: adipose triglyceride lipase (ATGL); assay: Western blot analysis, ATGL expression in OA-induced HuS-E/2 cells; conditions: CX at 50-400 μM, 0.1 mM OA-induced HuS-E/2 cells
Description: as §1

[5] = test system: carnitine palmitoyl-transferase 1 (CPT1); assay: Western blot analysis, CPT1 expression in OA-induced HuS-E/2 cells; conditions: CX at 50-400 μM, 0.1 mM OA-induced HuS-E/2 cells
Description: as §1

## COc1ccc2[nH]c(=O)oc2c1 [CX, 6-methoxybenzoxazolinone]
HuS-E/2 cells; CX at 25-400 μM, MTT
  effect on the viability of HuS-E/2 cells: no significant effect
HuS-E/2 cells; CX at up to 400 μM
  cytotoxicity in HuS-E/2 cells: did not inflict cytotoxicity
HuS-E/2 cells; HuS-E/2 cells, MTT, n=3, mean±SEM, read-out: CC50 (50% cytotoxic concentration)
  CC50: 1430 ± 170 µM
OA-induced HuS-E/2 cells; FIG. 2A
  lipid accumulation (micrographs, Oil Red O): reduced lipid accumulation in a dose-dependent manner
OA-induced HuS-E/2 cells; FIG. 2B
  lipid content (Oil Red O, absorbance 510 nm): diminished the lipid content
[1]
  AMPK phosphorylation: marked increase
[2]
  ACC1 phosphorylation: increasing ACC1 phosphorylation
[3]
  FAS expression: downregulated FAS expression
[4]
  ATGL expression: increased ATGL expression substantially
[5]
  CPT1 levels: elevated CPT1 levels
